Measured values as given in patent US10294202B2, “Pyrrolidinones as herbicides” (FMC Corporation, priority 2013, dated 2019).

Experiments:
Test in all cases: Test A pre-/postemergence herbicide test
corn = type: in vivo, Zea mays; conditions: for Corn plant response rating: Preemergence, visual rating on 0 to 100 scale (0 no effect, 100 complete control)
Source text: (§1) Seeds of plant species selected from bamyardgrass (Echinochloa crus-galli), kochia (Kochia scoparia), ragweed (common ragweed, Ambrosia elatior), ryegrass, Italian (Italian ryegrass, Lolium multiflorum), crabgrass, large (large crabgrass Digitaria sanguinalis), giant foxtail (Setaria faberii), morningglory (Ipomoea spp.), pigweed (Amaranthus retroflexus), velvetleaf (Abutilon theophrasti), wheat (Triticum aestivum), and corn (Zea mays) were planted into a blend of loam soil and sand and treated preemergence with a directed soil spray using test chemicals formulated in a non-phytotoxic solvent mixture which included a surfactant. At the same time, plants selected from these crop and weed species and also blackgrass (Alopecurus myosuroides), and galium (catchweed bedstraw, Galium aparine) were planted in pots containing the same blend of loam soil and sand and treated with postemergence applications of test chemicals formulated in the same manner. Plants ranged in height from 2 to 10 cm and were in the one- to two-leaf stage for the postemergence treatment. Treated plants and untreated controls were maintained in a greenhouse for approximately 10 days, after which time all treated plants were compared to untreated controls and visually evaluated for injury. Plant response ratings, summarized in Table A, are based on a 0 to 100 scale where 0 is no effect and 100 is complete control. A dash (-) response means no test result.

barnyardgrass = type: in vivo, Echinochloa crus-galli; conditions: for Barnyardgrass plant response rating: Preemergence, visual rating on 0 to 100 scale (0 no effect, 100 complete control)
Source text: as §1

wheat = type: in vivo, Triticum aestivum; conditions: for Wheat plant response rating: Preemergence, visual rating on 0 to 100 scale (0 no effect, 100 complete control)
Source text: as §1

crabgrass, large = type: in vivo, Digitaria sanguinalis; conditions: for Crabgrass, Large plant response rating: Preemergence, visual rating on 0 to 100 scale (0 no effect, 100 complete control)
Source text: as §1

pigweed = type: in vivo, Amaranthus retroflexus; conditions: for Pigweed plant response rating: Preemergence, visual rating on 0 to 100 scale (0 no effect, 100 complete control)
Source text: as §1

giant foxtail = type: in vivo, Setaria faberii; conditions: for Foxtail, Giant plant response rating: Preemergence, visual rating on 0 to 100 scale (0 no effect, 100 complete control)
Source text: as §1

morningglory = type: in vivo, Ipomoea spp.; conditions: for Morningglory plant response rating: Preemergence, visual rating on 0 to 100 scale (0 no effect, 100 complete control)
Source text: as §1

velvetleaf = type: in vivo, Abutilon theophrasti; conditions: for Velvetleaf plant response rating: Preemergence, visual rating on 0 to 100 scale (0 no effect, 100 complete control)
Source text: as §1

[1] = Postemergence, 125 g ai/ha, 0 to 100 scale, 0 no effect, 100 complete control
[2] = Postemergence, 500 g ai/ha, 0 to 100 scale (0 no effect, 100 complete control)
[3] = preemergence, 500 g ai/ha, 0 to 100 scale
[4] = preemergence, 500 g ai/ha, 0 to 100 scale (0 no effect, 100 complete control)
[5] = Postemergence, 1000 g ai/ha, 0 to 100 scale (0 no effect, 100 complete control)
[6] = preemergence, 1000 g ai/ha, 0 to 100 scale

| SMILES | Plant response rating, Corn (corn; [1]) | Plant response rating, Corn (corn; [2]) | Corn plant response rating (corn; 125 g ai/ha) | Plant response rating, Corn (corn; [3]) | Plant response rating, Barnyardgrass (barnyardgrass; [1]) | Plant response rating, Barnyardgrass (barnyardgrass; [2]) | Barnyardgrass plant response rating (barnyardgrass; 125 g ai/ha) | Plant response rating, Barnyardgrass (barnyardgrass; [4]) | Plant response rating, Wheat (wheat; [1]) | Plant response rating, Wheat (wheat; [2]) | Wheat plant response rating (wheat; 125 g ai/ha) | Plant response rating, Wheat (wheat; [3]) | Plant response rating, Crabgrass, Large (crabgrass, large; [1]) | Plant response rating, Crabgrass, Large (crabgrass, large; [2]) | Crabgrass, Large plant response rating (crabgrass, large; 125 g ai/ha) | Plant response rating, Crabgrass, Large (crabgrass, large; [3]) | Plant response rating, Pigweed (pigweed; [1]) | Plant response rating, Pigweed (pigweed; [2]) | Pigweed plant response rating (pigweed; 125 g ai/ha) | Plant response rating, Pigweed (pigweed; [3]) | further results |
| --- | --- | --- | --- | --- | --- | --- | --- | --- | --- | --- | --- | --- | --- | --- | --- | --- | --- | --- | --- | --- | --- |
| CC1NC(=O)C(C(=O)Nc2ccccc2C(F)(F)F)C1c1ccc(F)c(F)c1 (mixture of isomers) [Compound 9] | 0 | 0 | 0 | 0 | 30 | 50 | 20 | 60 | 0 | 0 | 0 | 0 | 40 | 70 | 80 | 90 | 0 | 0 | 0 | 0 | Plant response rating, Foxtail, Giant (giant foxtail; [1]): 0; Plant response rating, Foxtail, Giant (giant foxtail; [2]): 70; Foxtail, Giant plant response rating (giant foxtail; 125 g ai/ha): 70; Plant response rating, Foxtail, Giant (giant foxtail; [3]): 90; Plant response rating, Morningglory (morningglory; [1]): 0; Plant response rating, Morningglory (morningglory; [2]): 0; Morningglory plant response rating (morningglory; 125 g ai/ha): 0; Plant response rating, Morningglory (morningglory; [3]): 0; Plant response rating, Velvetleaf (velvetleaf; [1]): 0; Plant response rating, Velvetleaf (velvetleaf; [2]): 0; Velvetleaf plant response rating (velvetleaf; 125 g ai/ha): 0; Plant response rating, Velvetleaf (velvetleaf; [3]): 0 |
| O=C1NCC(c2ccc(F)c(F)c2)C1C(=O)Nc1cccc(C(F)(F)F)c1 (racemic) [Compound 13] | 0 | 0 | 0 | 0 | 0 | 30 | 0 | 50 | 0 | 0 | 0 | 0 | 0 | 60 | 50 | 80 | 0 | 0 | 0 | 0 | Plant response rating, Foxtail, Giant (giant foxtail; [1]): 0; Plant response rating, Foxtail, Giant (giant foxtail; [2]): 0; Foxtail, Giant plant response rating (giant foxtail; 125 g ai/ha): 0; Plant response rating, Foxtail, Giant (giant foxtail; [3]): 30; Plant response rating, Morningglory (morningglory; [1]): 0; Plant response rating, Morningglory (morningglory; [2]): 0; Morningglory plant response rating (morningglory; 125 g ai/ha): 0; Plant response rating, Morningglory (morningglory; [3]): 0; Plant response rating, Velvetleaf (velvetleaf; [1]): 0; Plant response rating, Velvetleaf (velvetleaf; [2]): 0; Velvetleaf plant response rating (velvetleaf; 125 g ai/ha): 0; Plant response rating, Velvetleaf (velvetleaf; [3]): 0 |
| O=C1NCC(c2ccccc2F)C1C(=O)Nc1ccccc1F (racemic) [Compound 85] | 0 | 0 | 0 | 0 | 0 | 20 | 0 | 30 | 0 | 0 | 0 | 0 | 0 | 50 | 30 | 80 | 0 | 0 | 0 | 0 | Plant response rating, Foxtail, Giant (giant foxtail; [1]): 0; Plant response rating, Foxtail, Giant (giant foxtail; [2]): 0; Foxtail, Giant plant response rating (giant foxtail; 125 g ai/ha): 0; Plant response rating, Foxtail, Giant (giant foxtail; [3]): 50; Plant response rating, Morningglory (morningglory; [1]): 0; Plant response rating, Morningglory (morningglory; [2]): 0; Morningglory plant response rating (morningglory; 125 g ai/ha): 0; Plant response rating, Morningglory (morningglory; [3]): 0; Plant response rating, Velvetleaf (velvetleaf; [1]): 0; Plant response rating, Velvetleaf (velvetleaf; [2]): 0; Velvetleaf plant response rating (velvetleaf; 125 g ai/ha): 0; Plant response rating, Velvetleaf (velvetleaf; [3]): 0 |
| O=C1NCC(c2ccccc2Cl)C1C(=O)Nc1ccccc1F (racemic) [Compound 88] | 0 | 0 | 0 | 0 | 0 | 40 | 0 | 50 | 0 | 0 | 0 | 0 | 0 | 60 | 40 | 80 | 0 | 0 | 0 | 30 | Plant response rating, Foxtail, Giant (giant foxtail; [1]): 0; Plant response rating, Foxtail, Giant (giant foxtail; [2]): 0; Foxtail, Giant plant response rating (giant foxtail; 125 g ai/ha): 0; Plant response rating, Foxtail, Giant (giant foxtail; [3]): 30; Plant response rating, Morningglory (morningglory; [1]): 0; Plant response rating, Morningglory (morningglory; [2]): 0; Morningglory plant response rating (morningglory; 125 g ai/ha): 0; Plant response rating, Morningglory (morningglory; [3]): 0; Plant response rating, Velvetleaf (velvetleaf; [1]): 0; Plant response rating, Velvetleaf (velvetleaf; [2]): 0; Velvetleaf plant response rating (velvetleaf; 125 g ai/ha): 0; Plant response rating, Velvetleaf (velvetleaf; [3]): 0 |
| O=C1NCC(c2ccc(Cl)cc2Cl)C1C(=O)Nc1ccccc1F (racemic) [Compound 91] | 0 | 0 | 0 | 0 | 0 | 20 | 0 | 20 | 0 | 0 | 0 | 0 | 30 | 50 | 40 | 60 | 0 | 0 | 0 | 0 | Plant response rating, Foxtail, Giant (giant foxtail; [1]): 0; Plant response rating, Foxtail, Giant (giant foxtail; [2]): 20; Foxtail, Giant plant response rating (giant foxtail; 125 g ai/ha): 0; Plant response rating, Foxtail, Giant (giant foxtail; [3]): 40; Plant response rating, Morningglory (morningglory; [1]): 0; Plant response rating, Morningglory (morningglory; [2]): 0; Morningglory plant response rating (morningglory; 125 g ai/ha): 0; Plant response rating, Morningglory (morningglory; [3]): 0; Plant response rating, Velvetleaf (velvetleaf; [1]): 0; Plant response rating, Velvetleaf (velvetleaf; [2]): 0; Velvetleaf plant response rating (velvetleaf; 125 g ai/ha): 0; Plant response rating, Velvetleaf (velvetleaf; [3]): 0 |
| Cn1ccnc1C1CNC(=O)C1C(=O)Nc1cccc(F)c1F (racemic) [Compound 252] |  |  |  |  |  |  |  |  |  |  |  |  |  |  |  |  |  |  |  |  | Plant response rating, Corn (corn; [5]): 0; Plant response rating, Corn (corn; [6]): 0; Plant response rating, Barnyardgrass (barnyardgrass; [5]): 0; Plant response rating, Barnyardgrass (barnyardgrass; preemergence, 1000 g ai/ha, 0 to 100 scale (0 no effect, 100 complete control)): 20; Plant response rating, Wheat (wheat; [5]): 0; Plant response rating, Wheat (wheat; [6]): 0; Plant response rating, Crabgrass, Large (crabgrass, large; [5]): 0; Plant response rating, Crabgrass, Large (crabgrass, large; [6]): 40; Plant response rating, Pigweed (pigweed; [5]): 0; Plant response rating, Foxtail, Giant (giant foxtail; [5]): 0; Plant response rating, Foxtail, Giant (giant foxtail; [6]): 20; Plant response rating, Morningglory (morningglory; [5]): 0; Plant response rating, Morningglory (morningglory; [6]): 0; Plant response rating, Velvetleaf (velvetleaf; [5]): 0; Plant response rating, Velvetleaf (velvetleaf; [6]): 0 |
| O=C1NCC(c2cc(Cl)cc(Cl)c2)C1C(=O)Nc1ccccc1F (racemic) [Compounds 90] | 0 | 30 | 0 | 0 | 30 | 70 | 30 | 70 | 0 | 0 | 0 | 0 | 50 | 70 | 70 | 80 | 0 | 20 | 0 | 0 | Plant response rating, Foxtail, Giant (giant foxtail; [1]): 40; Plant response rating, Foxtail, Giant (giant foxtail; [2]): 70; Foxtail, Giant plant response rating (giant foxtail; 125 g ai/ha): 60; Plant response rating, Foxtail, Giant (giant foxtail; [3]): 70; Plant response rating, Morningglory (morningglory; [1]): 0; Plant response rating, Morningglory (morningglory; [2]): 0; Morningglory plant response rating (morningglory; 125 g ai/ha): 0; Plant response rating, Morningglory (morningglory; [3]): 0; Plant response rating, Velvetleaf (velvetleaf; [1]): 0; Plant response rating, Velvetleaf (velvetleaf; [2]): 0; Velvetleaf plant response rating (velvetleaf; 125 g ai/ha): 0; Plant response rating, Velvetleaf (velvetleaf; [3]): 0 |
